The source of these data is US20060116410A1, “4-Aminomethyl benzamidine derivatives” (priority 2004, published 2006).

Where a name gives a salt, the structure may show the parent alone.

T1 sequence (P08709 213-466 limits assumed): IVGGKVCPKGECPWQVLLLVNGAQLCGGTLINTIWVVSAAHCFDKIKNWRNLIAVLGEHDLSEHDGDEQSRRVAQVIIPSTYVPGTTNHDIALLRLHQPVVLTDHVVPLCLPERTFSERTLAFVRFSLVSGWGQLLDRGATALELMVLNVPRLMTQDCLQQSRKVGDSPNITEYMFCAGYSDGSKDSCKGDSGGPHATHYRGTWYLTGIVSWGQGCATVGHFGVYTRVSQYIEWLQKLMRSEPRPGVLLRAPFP
T1 sequence (P08709 61-212 limits assumed): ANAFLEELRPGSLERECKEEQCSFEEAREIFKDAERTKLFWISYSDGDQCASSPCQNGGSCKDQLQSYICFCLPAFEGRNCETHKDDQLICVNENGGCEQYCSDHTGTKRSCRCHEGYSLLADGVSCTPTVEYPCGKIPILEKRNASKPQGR
T1 sequence (P13726 33-295 partner): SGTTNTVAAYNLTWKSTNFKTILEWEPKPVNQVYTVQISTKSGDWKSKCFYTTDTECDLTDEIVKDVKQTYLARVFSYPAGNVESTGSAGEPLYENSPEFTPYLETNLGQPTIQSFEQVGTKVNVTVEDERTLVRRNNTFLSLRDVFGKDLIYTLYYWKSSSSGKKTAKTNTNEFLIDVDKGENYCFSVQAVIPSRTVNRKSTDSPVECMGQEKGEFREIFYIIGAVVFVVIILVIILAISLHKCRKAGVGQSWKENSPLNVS

The test has as its target T1, factor VIIa/tissue factor complex (Homo sapiens, UniProt P08709).
T1 construct: 9 nM of soluble factor VIIa
In words: Inhibition of amidolytic activity of factor VIIa/tissue factor complex, chromogenic substrate Chromozym-tPA. The class given is biochemical. The following applies: 26 nM tissue factor, 9 nM soluble factor VIIa, room temperature, pH 7.5. As for the experimental part:
Measurements were carried out by an automated robotic assay on microtitre plates at room temperature. To this end, 100 μl of a solution of 26 nM of tissue factor, 9 nM of soluble factor VIIa and 8 mM of calcium chloride were added to 25 μl of a solution of the inhibitor in a buffer [pH 7.5, 100 mM, comprising 0.14M NaCl, 0.1M N-(2-hydroxyethyl)piperazine-N′-(2-ethanesulphonic acid) (HEPES), 0.5 mg/l of fatty-acid-free BSA (bovine serum albumin) and 0.05% NaN3] in each well of the plate. After an incubation time of 15 minutes the reaction was started by the addition of 50 μl of chromogenic substrate Chromozym-tPA (3.5 mM, MeSO2-D-Phe-Gly-Arg-paranitroamlide) and the hydrolysis of the substrate was followed spectrophotometrically on a kinetic microtitre plate reader over 10 minutes. Using the plot of the inhibition curves, the Ki values were determined according to the method described in Biochem. J. 55, 1953, 170-171.
A word on the Ki: it is a dissociation constant, usually derived from enzyme kinetics or from competition with a known ligand. Read a high Ki as weaker binding. In the case of `CNC(=O)COc1cc(C(=N)N)ccc1CNC(=O)c1cc(Cl)cc(Cl)c1` [Example 18.2, N-(4-carbamimidoyl-2-methylcarbamoylmethoxy-benzyl)-3,5-dichloro-benzamide hydrochloride], the affinity corresponds to a Ki of 62 nM.

In turn, `CCOC(=O)CNc1cc(C(=N)N)ccc1CNC(=O)c1cccc(C)c1` [Example 24.1, {5-carbamimidoyl-2-[(3-methyl-benzoylamino)-methyl]-phenylamino}-acetic acid ethyl ester hydrochloride] had a Ki of 81 nM.

`Cc1cc(C(=O)NCc2ccc(C(=N)N)cc2OCCNC(=O)c2ccccc2F)ccc1F` [Example 42.2, N-{4-carbamimidoyl-2-[2-(2-fluoro-benzoylamino)-ethoxy]-benzyl}-4-fluoro-3-methyl-benzamide hydrochloride] had a Ki of 51 nM. This Ki lies about 1.6-fold lower than the previous one.
